# Measured values reported in BindingDB's records for doi:10.1016/j.bmcl.2007.06.023 (Merck Frosst Centre For Therapeutic Research, 2007).
# Experiments:
# Assay in all cases: Enzyme Inhibition Assay
# Cathepsin K = target: T1, Cathepsin K (Oryctolagus cuniculus, UniProt P43236)
# T1 sequence (P43236 whole entry): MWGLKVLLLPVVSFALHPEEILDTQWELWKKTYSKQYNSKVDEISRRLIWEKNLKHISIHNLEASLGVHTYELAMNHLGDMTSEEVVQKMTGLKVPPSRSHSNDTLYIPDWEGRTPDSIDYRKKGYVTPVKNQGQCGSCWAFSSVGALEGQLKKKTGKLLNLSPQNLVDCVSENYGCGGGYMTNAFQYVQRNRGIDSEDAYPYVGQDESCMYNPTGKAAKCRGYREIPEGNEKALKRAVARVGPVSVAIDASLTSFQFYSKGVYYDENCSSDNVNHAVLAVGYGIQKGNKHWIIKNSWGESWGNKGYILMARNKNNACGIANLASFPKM
# Procedure: (§1) Prior to the addition of substrate, different concentrations of the inhibitor ranging from 100 uM to 0.2 nM were preincubated for 15 min with enzyme to allow the establishment of the enzyme-inhibitor complex. The proteolytic cleavage of N-acyl aminocoumarins by cathepsins was conducted in 96-well plate format and the plate read using a Spectramax (Molecular Devices) plate reader. The excitation wavelength was 355 nm and the emission wavelength was 460 nm for peptidyl-AMC substrates. The percent inhibition of the reaction was calculated from a control reaction containing only vehicle. IC50 curves were generated by fitting percent inhibition values to a four parameter logistic model (SOFTMAX PRO, Molecular Devices).
# Cathepsin S = Cathepsin S (Homo sapiens, UniProt P25774); conditions: pH 6.5; 22 °C
# Chain of Cathepsin S (P25774 whole entry): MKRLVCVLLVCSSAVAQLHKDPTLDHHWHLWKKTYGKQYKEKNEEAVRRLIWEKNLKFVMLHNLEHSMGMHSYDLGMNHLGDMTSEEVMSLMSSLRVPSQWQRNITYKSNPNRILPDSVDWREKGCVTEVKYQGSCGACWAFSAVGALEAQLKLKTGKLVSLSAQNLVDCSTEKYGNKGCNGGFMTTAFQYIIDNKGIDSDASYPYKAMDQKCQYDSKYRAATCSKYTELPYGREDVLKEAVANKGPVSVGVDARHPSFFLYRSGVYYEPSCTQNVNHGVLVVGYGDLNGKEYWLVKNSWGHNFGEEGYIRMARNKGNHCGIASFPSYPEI
# Procedure: as §1
# Procathepsin L = Procathepsin L (Homo sapiens, UniProt P07711)
# Chain of Procathepsin L (P07711 whole entry): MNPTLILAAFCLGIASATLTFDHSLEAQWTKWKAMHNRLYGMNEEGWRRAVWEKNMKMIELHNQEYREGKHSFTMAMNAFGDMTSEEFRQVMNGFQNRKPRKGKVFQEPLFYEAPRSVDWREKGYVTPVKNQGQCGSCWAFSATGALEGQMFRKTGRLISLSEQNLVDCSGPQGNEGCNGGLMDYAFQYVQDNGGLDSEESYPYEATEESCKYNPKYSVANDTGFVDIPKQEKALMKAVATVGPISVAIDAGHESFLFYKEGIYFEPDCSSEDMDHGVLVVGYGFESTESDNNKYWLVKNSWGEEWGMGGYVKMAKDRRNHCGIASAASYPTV
# Procedure: as §1
IC50 (Cathepsin K) [nM],IC50 (Cathepsin S) [nM],IC50 (Procathepsin L) [nM],Structure (SMILES)
> 10000,,,"N#CC1(NC(=O)[C@H](CS(=O)(=O)Cc2cccc(F)c2F)N[C@@H](c2ccc(F)cc2)C(F)(F)F)CC1 [(2R)-N-(1-cyanocyclopropyl)-3-{[(2,3-difluorophenyl)methane]sulfonyl}-2-{[(1S)-2,2,2-trifluoro-1-(4-fluorophenyl)ethyl]amino}propanamide]"
> 10000,,,"N#CC1(NC(=O)[C@H](CS(=O)(=O)Cc2ccc(F)cc2)N[C@@H](c2ccccc2)C(F)(F)F)CC1 [(2R)-N-(1-cyanocyclopropyl)-3-{[(4-fluorophenyl)methane]sulfonyl}-2-{[(1S)-2,2,2-trifluoro-1-phenylethyl]amino}propanamide]"
6.2,1.2,,CC(C)C[C@@H](NC(=O)N1CCOCC1)C(=O)N[C@@H](C=CS(=O)(=O)c1ccccc1)CCc1ccccc1
> 10000,,,"N#CC1(NC(=O)[C@H](CS(=O)(=O)Cc2cccc(F)c2F)N[C@@H](c2ccccc2)C(F)(F)F)CC1 [(2R)-N-(1-cyanocyclopropyl)-3-{[(2,3-difluorophenyl)methane]sulfonyl}-2-{[(1S)-2,2,2-trifluoro-1-phenylethyl]amino}propanamide]"
> 10000,,,"N#CC1(NC(=O)[C@H](CS(=O)(=O)Cc2ccccc2-c2ccccc2)N[C@@H](c2ccc(F)cc2)C(F)(F)F)CC1 [(2R)-N-(1-cyanocyclopropyl)-3-{[(2-phenylphenyl)methane]sulfonyl}-2-{[(1S)-2,2,2-trifluoro-1-(4-fluorophenyl)ethyl]amino}propanamide]"
> 10000,0.7,249,"N#CC1(NC(=O)[C@H](CS(=O)(=O)Cc2c(Cl)cccc2Cl)N[C@@H](c2ccc(F)cc2)C(F)(F)F)CC1 [(2R)-N-(1-cyanocyclopropyl)-3-{[(2,6-dichlorophenyl)methane]sulfonyl}-2-{[(1S)-2,2,2-trifluoro-1-(4-fluorophenyl)ethyl]amino}propanamide]"
> 10000,,,"CC(C)(c1ccc(F)cc1)S(=O)(=O)C[C@H](N[C@@H](c1ccc(F)cc1)C(F)(F)F)C(=O)NC1(C#N)CC1 [(2R)-N-(1-cyanocyclopropyl)-3-{[2-(4-fluorophenyl)propane-2-]sulfonyl}-2-{[(1S)-2,2,2-trifluoro-1-(4-fluorophenyl)ethyl]amino}propanamide]"
